This is an account of results in patent US20050186658A1, “Chimeric metabotropic glutamate receptors and uses thereof” (NPS Pharmaceuticals, Inc., priority 2003, published 2005).

In one assay the target is rat mGluR1 (Rattus norvegicus, UniProt P23385). Particulars: Xenopus oocytes; FIG. 9 and FIG. 10A.
The target in a further assay is pmGluR1/CaR chimera (Rattus norvegicus, UniProt P23385). Conditions: Xenopus oocytes; compared with rat mGluR1; FIG. 9.
Another assay has as its target T1, CaSPhmGluR2(27-19) (Homo sapiens, UniProt Q14416).
T1 construct: CaR signal peptide (first 27 amino acids of CaR) (N); expressed in transfected cells; host or cells: Xenopus laevis oocytes injected with RNA (with GIRK1 and GIRK4 RNA)
Description: oocyte assay for Gαi-coupled receptors (GIRK1/GIRK4 co-injection, voltage clamp). The assay is classed as cell-based. Conditions: 100 uM L-glutamate; Xenopus oocytes; FIG. 6.

Another assay has as its target T2, CaSPhmGluR6(27-35) (Homo sapiens, UniProt O15303, Q59P).
T2 construct: CaR signal peptide (first 27 amino acids of CaR) (N); expressed in transfected cells; host or cells: Xenopus laevis oocytes injected with RNA
Described as above. The assay is classed as cell-based. Conditions: 100 uM L-glutamate; Xenopus oocytes; FIG. 7. As for the experimental part:
(§1) The ability of each Gαi-coupled mGlu or mGluR-CaR chimeric receptors to function was determined in Xenopus oocytes, with co-injection of the G-protein inward rectifying potassium channel subunits, GIRK 1 and GIRK4 (Kubo et al 1993 Nature 364: 802). Individual oocytes were injected with a mixture containing 5 ng receptor, 1.5 ng GIRK1 and 1.5 ng GIRK4. […] Further details can be found in Saugstad, et al., J. Neurosci. 1996 16:5979-5985. Application of glutamate evoked inward potassium currents in oocytes expressing both the chimeric receptors and the potassium channels, but not in oocytes expressing only the receptor or only the channel subunits.

The target in another assay is T3, CaSPhmGluR3(27-33) (Homo sapiens, UniProt Q14832).
T3 construct: CaR signal peptide (first 27 amino acids of CaR) (N); expressed in transfected cells; host or cells: Xenopus laevis oocytes injected with RNA (with GIRK1 and GIRK4 RNA)
T3 sequence (Q14832 with tags, fused parts or gaps): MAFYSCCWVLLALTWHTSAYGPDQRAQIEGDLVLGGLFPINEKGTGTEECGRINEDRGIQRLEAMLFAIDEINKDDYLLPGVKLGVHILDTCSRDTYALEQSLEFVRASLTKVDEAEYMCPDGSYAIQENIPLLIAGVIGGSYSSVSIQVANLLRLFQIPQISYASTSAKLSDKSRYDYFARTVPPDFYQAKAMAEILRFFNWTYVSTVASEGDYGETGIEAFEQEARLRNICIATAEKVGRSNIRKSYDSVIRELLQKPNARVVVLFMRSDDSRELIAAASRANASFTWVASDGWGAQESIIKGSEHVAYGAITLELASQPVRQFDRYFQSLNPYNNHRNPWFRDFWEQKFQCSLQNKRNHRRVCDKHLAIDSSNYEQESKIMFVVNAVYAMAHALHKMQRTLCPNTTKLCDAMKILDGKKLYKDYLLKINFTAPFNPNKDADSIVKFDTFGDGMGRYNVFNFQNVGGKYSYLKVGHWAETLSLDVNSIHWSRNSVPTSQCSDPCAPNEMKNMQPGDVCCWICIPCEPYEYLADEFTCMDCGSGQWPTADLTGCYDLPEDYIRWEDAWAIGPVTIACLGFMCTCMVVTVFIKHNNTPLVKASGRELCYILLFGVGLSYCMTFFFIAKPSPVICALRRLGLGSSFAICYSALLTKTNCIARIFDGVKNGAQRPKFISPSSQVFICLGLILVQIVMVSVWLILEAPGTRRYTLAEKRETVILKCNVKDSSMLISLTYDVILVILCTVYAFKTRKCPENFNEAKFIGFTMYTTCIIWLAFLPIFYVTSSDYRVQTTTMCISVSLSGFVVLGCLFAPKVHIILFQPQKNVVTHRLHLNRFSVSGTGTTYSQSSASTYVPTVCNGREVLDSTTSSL
Described as above. The assay is classed as cell-based. Particulars: 100 uM L-glutamate; Xenopus oocytes; FIG. 5. How it is done:
as §1

Another assay addresses T4, CaSPhmGluR7(27-45) (Homo sapiens, UniProt Q14831).
T4 construct: human CaR signal peptide (first 27 amino acids of CaR), replacing mGluR7 residues 1-44 (N); expressed in transfected cells; host or cells: Xenopus laevis oocytes injected with in vitro transcribed RNA (co-injected with GIRK1 and GIRK4 RNA)
Described as above. Type of assay: cell-based. Particulars: 100 uM L-glutamate; Xenopus oocytes; FIG. 4. As for the experimental part:
as §1

A further assay concerns the target T5, CaSPhmGluR5(27-22) (Homo sapiens, UniProt P41594).
T5 construct: CaR signal peptide (first 27 amino acids of CaR) (N); expressed in transfected cells; host or cells: Xenopus laevis oocytes injected with in vitro transcribed RNA
Nature of the assay: oocyte assay for PLC-coupled receptors (voltage clamp, Cl- current). The assay is classed as cell-based. Particulars: 100 uM L-glutamate; Xenopus oocytes; FIG. 8.

Another assay has as its target T6, human CaR (Homo sapiens, UniProt P41180, R990G).
T6 construct: expressed in transfected cells; host or cells: Xenopus laevis oocytes injected with human CaR RNA (plasmid phPCaR4.0)
T6 sequence (P41180 20-1078 R990G): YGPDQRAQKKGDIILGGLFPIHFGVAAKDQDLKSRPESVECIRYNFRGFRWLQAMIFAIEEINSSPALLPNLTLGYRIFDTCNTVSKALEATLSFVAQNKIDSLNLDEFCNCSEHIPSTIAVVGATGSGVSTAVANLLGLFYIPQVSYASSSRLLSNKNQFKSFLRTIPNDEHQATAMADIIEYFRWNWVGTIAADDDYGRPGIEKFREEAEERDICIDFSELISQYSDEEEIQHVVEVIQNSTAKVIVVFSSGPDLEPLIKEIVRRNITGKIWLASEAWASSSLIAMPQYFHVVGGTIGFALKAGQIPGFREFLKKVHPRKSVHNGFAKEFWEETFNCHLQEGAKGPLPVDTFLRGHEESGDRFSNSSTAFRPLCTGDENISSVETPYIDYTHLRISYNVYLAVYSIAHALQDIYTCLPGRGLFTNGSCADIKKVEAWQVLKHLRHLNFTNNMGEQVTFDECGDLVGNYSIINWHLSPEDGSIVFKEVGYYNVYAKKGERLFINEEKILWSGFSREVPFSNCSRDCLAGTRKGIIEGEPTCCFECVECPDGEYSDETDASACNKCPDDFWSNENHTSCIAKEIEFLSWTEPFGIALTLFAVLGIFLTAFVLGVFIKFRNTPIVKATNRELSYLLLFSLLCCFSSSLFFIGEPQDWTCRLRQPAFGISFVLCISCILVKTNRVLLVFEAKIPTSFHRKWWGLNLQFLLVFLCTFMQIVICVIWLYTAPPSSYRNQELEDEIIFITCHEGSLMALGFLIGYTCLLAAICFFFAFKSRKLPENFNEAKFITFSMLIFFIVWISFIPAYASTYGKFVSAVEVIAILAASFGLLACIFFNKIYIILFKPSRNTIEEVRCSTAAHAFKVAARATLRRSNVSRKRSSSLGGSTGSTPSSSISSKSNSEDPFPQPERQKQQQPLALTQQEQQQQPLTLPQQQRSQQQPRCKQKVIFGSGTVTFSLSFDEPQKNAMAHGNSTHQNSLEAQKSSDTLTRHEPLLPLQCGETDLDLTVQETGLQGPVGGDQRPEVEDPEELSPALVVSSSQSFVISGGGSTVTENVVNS
Nature of the assay: PLC-coupled oocyte assay. The assay is classed as cell-based. Particulars: Xenopus oocytes; FIG. 10B.

T4 sequence (Q14831 with tags, fused parts or gaps): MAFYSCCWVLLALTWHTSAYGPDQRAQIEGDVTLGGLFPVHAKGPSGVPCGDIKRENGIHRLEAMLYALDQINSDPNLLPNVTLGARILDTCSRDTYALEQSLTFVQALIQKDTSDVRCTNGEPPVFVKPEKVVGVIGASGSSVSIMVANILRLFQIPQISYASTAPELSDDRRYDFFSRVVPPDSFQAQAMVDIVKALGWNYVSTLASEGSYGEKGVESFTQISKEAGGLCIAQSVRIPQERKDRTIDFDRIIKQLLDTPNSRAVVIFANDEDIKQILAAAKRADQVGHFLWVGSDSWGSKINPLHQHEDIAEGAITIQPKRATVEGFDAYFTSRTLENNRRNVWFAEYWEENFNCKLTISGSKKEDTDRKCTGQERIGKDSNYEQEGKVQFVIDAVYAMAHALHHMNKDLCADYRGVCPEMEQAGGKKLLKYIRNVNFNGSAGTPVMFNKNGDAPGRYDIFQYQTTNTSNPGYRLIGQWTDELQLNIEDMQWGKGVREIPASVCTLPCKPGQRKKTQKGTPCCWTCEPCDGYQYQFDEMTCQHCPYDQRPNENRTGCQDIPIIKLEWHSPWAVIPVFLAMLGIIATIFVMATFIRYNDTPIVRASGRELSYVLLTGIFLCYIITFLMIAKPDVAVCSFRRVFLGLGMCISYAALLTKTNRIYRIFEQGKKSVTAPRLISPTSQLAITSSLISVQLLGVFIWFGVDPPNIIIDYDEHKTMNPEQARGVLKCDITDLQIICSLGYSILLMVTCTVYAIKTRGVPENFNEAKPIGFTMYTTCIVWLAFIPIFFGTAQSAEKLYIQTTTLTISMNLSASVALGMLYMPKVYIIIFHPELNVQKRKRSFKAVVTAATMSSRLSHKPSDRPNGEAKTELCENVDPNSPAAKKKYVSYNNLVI
Chain of rat mGluR1 (P23385 19-1199): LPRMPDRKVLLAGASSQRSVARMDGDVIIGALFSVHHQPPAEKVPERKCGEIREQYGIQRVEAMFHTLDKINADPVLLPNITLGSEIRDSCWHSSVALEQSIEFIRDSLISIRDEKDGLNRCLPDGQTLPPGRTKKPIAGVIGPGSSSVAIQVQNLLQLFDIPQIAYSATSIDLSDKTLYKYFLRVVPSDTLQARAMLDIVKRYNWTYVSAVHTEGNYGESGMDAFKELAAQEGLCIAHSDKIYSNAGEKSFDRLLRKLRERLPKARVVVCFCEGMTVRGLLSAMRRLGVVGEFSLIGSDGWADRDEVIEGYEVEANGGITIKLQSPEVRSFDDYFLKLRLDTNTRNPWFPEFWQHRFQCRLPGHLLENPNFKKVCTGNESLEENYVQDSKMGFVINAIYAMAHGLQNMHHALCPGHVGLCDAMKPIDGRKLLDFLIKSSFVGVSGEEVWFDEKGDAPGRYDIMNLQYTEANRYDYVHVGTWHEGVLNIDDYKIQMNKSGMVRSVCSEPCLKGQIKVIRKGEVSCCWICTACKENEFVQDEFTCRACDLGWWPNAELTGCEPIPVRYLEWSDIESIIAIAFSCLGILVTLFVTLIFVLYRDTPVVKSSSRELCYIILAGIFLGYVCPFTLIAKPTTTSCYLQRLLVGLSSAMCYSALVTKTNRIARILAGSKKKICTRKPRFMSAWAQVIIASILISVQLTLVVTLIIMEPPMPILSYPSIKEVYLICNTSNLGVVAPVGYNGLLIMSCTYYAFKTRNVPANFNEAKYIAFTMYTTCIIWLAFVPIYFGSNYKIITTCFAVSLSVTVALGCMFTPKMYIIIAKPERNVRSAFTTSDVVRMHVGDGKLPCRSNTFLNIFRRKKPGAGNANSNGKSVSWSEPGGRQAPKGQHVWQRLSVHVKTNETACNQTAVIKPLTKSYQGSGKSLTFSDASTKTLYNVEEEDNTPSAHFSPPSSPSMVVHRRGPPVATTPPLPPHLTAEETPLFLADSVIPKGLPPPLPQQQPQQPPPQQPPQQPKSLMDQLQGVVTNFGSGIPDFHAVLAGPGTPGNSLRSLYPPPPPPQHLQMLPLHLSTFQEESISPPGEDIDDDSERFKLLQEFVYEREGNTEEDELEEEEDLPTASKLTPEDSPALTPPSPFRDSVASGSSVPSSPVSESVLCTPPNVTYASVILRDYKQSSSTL
T1 sequence (Q14416 with tags, fused parts or gaps): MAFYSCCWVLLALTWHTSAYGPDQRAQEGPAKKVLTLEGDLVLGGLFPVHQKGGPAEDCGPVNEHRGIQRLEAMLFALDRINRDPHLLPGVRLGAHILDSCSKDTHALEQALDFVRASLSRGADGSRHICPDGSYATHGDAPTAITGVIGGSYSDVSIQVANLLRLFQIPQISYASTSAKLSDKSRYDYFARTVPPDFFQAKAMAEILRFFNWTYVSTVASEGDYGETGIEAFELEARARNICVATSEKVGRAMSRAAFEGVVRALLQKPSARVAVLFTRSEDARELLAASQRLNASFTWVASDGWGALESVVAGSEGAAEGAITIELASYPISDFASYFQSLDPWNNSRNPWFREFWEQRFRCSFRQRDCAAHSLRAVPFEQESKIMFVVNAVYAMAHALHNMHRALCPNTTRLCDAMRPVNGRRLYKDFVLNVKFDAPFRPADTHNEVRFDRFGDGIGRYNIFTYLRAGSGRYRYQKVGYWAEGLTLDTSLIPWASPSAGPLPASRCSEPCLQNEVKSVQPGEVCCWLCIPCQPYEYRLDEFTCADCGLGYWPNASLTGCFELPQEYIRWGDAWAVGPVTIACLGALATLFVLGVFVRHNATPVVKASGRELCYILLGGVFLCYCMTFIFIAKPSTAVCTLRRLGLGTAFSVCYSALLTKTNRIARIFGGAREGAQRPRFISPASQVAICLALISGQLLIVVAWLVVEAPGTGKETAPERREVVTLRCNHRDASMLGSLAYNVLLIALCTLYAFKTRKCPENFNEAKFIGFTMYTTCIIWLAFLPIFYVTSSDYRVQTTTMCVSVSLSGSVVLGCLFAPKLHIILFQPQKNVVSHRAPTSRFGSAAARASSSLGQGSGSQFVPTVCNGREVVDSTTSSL
T5 sequence (P41594 with tags, fused parts or gaps): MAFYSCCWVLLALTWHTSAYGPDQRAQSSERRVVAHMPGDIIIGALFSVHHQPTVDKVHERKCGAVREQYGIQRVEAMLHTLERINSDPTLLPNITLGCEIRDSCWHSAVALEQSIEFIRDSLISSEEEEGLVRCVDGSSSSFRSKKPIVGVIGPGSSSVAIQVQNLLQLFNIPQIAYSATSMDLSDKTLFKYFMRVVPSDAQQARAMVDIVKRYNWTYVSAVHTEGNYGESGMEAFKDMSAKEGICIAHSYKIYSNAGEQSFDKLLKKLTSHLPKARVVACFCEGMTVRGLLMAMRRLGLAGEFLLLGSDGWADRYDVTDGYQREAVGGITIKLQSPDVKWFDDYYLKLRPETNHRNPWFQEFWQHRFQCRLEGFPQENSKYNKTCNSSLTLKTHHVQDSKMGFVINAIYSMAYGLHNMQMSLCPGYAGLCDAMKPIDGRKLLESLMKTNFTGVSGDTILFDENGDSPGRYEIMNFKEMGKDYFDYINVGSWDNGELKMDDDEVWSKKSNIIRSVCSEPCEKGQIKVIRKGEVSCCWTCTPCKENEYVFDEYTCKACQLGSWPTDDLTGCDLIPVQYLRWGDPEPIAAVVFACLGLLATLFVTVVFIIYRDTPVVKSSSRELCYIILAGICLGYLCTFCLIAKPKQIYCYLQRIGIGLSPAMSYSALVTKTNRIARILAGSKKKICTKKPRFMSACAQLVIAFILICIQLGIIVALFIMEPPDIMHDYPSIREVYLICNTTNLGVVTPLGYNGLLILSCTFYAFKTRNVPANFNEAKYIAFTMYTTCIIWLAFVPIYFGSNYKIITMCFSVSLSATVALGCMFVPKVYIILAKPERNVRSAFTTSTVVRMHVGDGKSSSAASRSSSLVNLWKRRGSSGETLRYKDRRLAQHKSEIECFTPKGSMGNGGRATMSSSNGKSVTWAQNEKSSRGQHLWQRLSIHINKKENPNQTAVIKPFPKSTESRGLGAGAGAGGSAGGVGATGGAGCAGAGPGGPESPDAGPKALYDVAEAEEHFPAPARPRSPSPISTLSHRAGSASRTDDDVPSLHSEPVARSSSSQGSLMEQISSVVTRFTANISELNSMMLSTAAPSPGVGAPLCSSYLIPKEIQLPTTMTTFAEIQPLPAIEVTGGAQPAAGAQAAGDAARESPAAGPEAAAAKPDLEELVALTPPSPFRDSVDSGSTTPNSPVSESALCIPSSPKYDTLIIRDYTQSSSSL

On to `N[C@@H](Cn1oc(=O)[nH]c1=O)C(=O)O` [quisqualate], for which the “receptor response (Cl- currents on release of intracellular Ca2+)” value at rat mGluR1 and at pmGluR1/CaR chimera was “respond comparably” each time.

Regarding `N[C@@H](CCC(=O)O)C(=O)O` [L-glutamate], the “activation of the receptor” value at CaSPhmGluR2(27-19) is “Activation of the receptor”. Further, the “activation of the chimeric receptor” value at CaSPhmGluR6(27-35) is “Activation of the chimeric receptor”; at CaSPhmGluR3(27-33) it was “activation of the chimeric receptor was seen”; on CaSPhmGluR7(27-45), “robust activation”; at CaSPhmGluR5(27-22), “Activation of the chimeric receptor”. Besides, the “Cl- current in oocytes injected with human CaR RNA” value at human CaR is “elicits oscillatory increases in Cl— current”.
